In publication PMC6627454, “Size and Flexibility Define the Inhibition of the H3N2 Influenza Endonuclease Enzyme by Calix[n]arenes” (Antibiotics, 2019):

system: influenza virus; assay: not given; design: method as in PMID 30184455; conditions: clinical trials, compared to oseltamivir; cited from earlier work

Structure (SMILES)	reduction in viral loads
COC(=O)OCOc1c2n(ccc1=O)N([C@@H]1c3ccccc3SCc3c1ccc(F)c3F)[C@@H]1COCCN1C2=O [Baloxavir Marboxil]	greater reduction in viral loads

system: PA endonuclease; assay: not given; conditions: PA endonuclease, in vitro assays only; read-out: Inhibition Activity IC50; cited from earlier work

Structure (SMILES)	IC50 [nM]
O=C(O)c1c[nH]cc(O)c1=O [5-hydroxy-4-pyridone-3-carboxy acid]	3230
O=c1[nH]cncc1O [5-hydroxypyrimidin-4(3H)-one]	150

same assay, conditions: PA endonuclease; read-out: Inhibition Activity IC50; cited from earlier work

Structure (SMILES)	IC50 [nM]
O=C1c2c(O)c(=O)ccn2N([C@@H]2c3ccccc3SCc3c2ccc(F)c3F)[C@@H]2COCCN12 [Baloxavir Acid]	0.23

same assay, conditions: in vitro assay, viral PA polymerase unit; read-out: IC50; cited from earlier work

Structure (SMILES)	IC50 [nM]
O=C1c2c(O)c(=O)ccn2N([C@@H]2c3ccccc3SCc3c2ccc(F)c3F)[C@@H]2COCCN12 [Baloxavir Acid]	2.5

molecular target: H3N2 influenza PA endonuclease (Influenza A virus, UniProt P31343); assay: PA endonuclease inhibition assay (λ-DNA digestion, agarose gel electrophoresis); format: biochemical, Influenza A/Victoria/3/1975 (H3N2); conditions: 0.5 µg λ-DNA, PA endonuclease 0.5 mg/mL, 1 h at 37 °C, 1 mM MnCl2, pH 8; 3 measurements
Experimental: The digestion activity of the purified PA endonuclease was quantified using agarose gel electrophoresis. A concentration range of PA endonuclease (0.5 mg/mL to 0.5 µg/mL) was mixed with 0.5 µg of λ-DNA (Takara, Japan) in buffer at a final concentration of 20 mM Tris HCl pH 8, 100 mM NaCl, 1 mM MnCl2, 10 mM β-mercaptoethanol. After one hour of incubation at 37 °C, the samples were deposited on ethidium bromide treated agarose gel 0.6% and run during 90 minutes at 75 V. The gel was then scanned (Figure S2). 100 µM solutions of each macrocyclic molecules (Scheme 1) were mixed with 0.5 µg of buffered λ-DNA. This mixture was then combined with the PA endonuclease enzyme and incubated for 1 hour at 37 °C. The samples were deposited on agarose gel 0.6% previously mixed with ethidium bromide and run during 90 minutes at 75 V, after which the gel was scanned. Digestion activity was plotted as a function of inhibitor concentration by quantifying the intensity of the digested bands with ImageJ software. The IC50 values were calculated as in our work on endonuclease inhibition. The intensity of λ-DNA bands was subtracted from negative control (λ-DNA lane) and then normalized from the positive control (λ-DNA and PA protein lane without inhibitor).
100 µM of each macrocyclic molecules β-CDsul, SC[n]a, SC[n]b, and SC[n]c (Figure 1) have been mixed to 0.5 µg of λ-DNA in a buffer at final concentration of 20 mM Tris HCl pH 8, 100 mM NaCl, 1 mM MnCl2, 10 mM β-mercaptoethanol.
The mixture was then mixed with the PA endonuclease enzyme at 0.5 mg/mL and incubated for 1 h at 37 °C.
The samples have been deposited on agarose gel 0.6% previously mixed with ethidium bromide and run over 90 min at 75 V. The gel was then scanned on the ChemiDoc XRS system (Bio-Rad).
The digestion activity is then plotted as a matter of inhibitor concentration by quantifying the intensity of the digested bands with ImageJ software.

Structure (SMILES)	IC50 [µM]
O=P(O)(O)Oc1c2cccc1Cc1cccc(c1O)Cc1cccc(c1OP(=O)(O)O)Cc1cccc(c1O)C2 [C4diP, Calix[4]arene dihydroxyphosphonic acid]	> 100
O=S(=O)(O)OC[C@H]1O[C@@H]2O[C@H]3[C@H](OS(=O)(=O)O)[C@@H](OS(=O)(=O)O)[C@@H](O[C@H]4[C@H](OS(=O)(=O)O)[C@@H](OS(=O)(=O)O)[C@@H](O[C@H]5[C@H](OS(=O)(=O)O)[C@@H](OS(=O)(=O)O)[C@@H](O[C@H]6[C@H](OS(=O)(=O)O)[C@@H](OS(=O)(=O)O)[C@@H](O[C@H]7[C@H](OS(=O)(=O)O)[C@@H](OS(=O)(=O)O)[C@@H](O[C@H]8[C@H](OS(=O)(=O)O)[C@@H](OS(=O)(=O)O)[C@@H](O[C@H]1[C@H](OS(=O)(=O)O)[C@H]2OS(=O)(=O)O)O[C@@H]8COS(=O)(=O)O)O[C@@H]7COS(=O)(=O)O)O[C@@H]6COS(=O)(=O)O)O[C@@H]5COS(=O)(=O)O)O[C@@H]4COS(=O)(=O)O)O[C@@H]3COS(=O)(=O)O [CD, Sulfated β-cyclodextrin, reference compound]	> 100
O=S(=O)(O)c1cc2c(O)c(c1)Cc1cc(S(=O)(=O)O)cc(c1O)Cc1cc(S(=O)(=O)O)cc(c1O)Cc1cc(S(=O)(=O)O)cc(c1O)C2 [SC4a, para-sulfonato-calix[4]arene]	> 100
O=S(=O)(O)CCCOc1c2cccc1Cc1cccc(c1OCCCS(=O)(=O)O)Cc1cccc(c1OCCCS(=O)(=O)O)Cc1cccc(c1OCCCS(=O)(=O)O)C2 [SC4b]	> 100
O=S(=O)(O)CCCOc1c2cc(S(=O)(=O)O)cc1Cc1cc(S(=O)(=O)O)cc(c1OCCCS(=O)(=O)O)Cc1cc(S(=O)(=O)O)cc(c1OCCCS(=O)(=O)O)Cc1cc(S(=O)(=O)O)cc(c1OCCCS(=O)(=O)O)C2 [SC4c]	> 100
O=S(=O)(O)c1cc2c(O)c(c1)Cc1cc(S(=O)(=O)O)cc(c1O)Cc1cc(S(=O)(=O)O)cc(c1O)Cc1cc(S(=O)(=O)O)cc(c1O)Cc1cc(S(=O)(=O)O)cc(c1O)Cc1cc(S(=O)(=O)O)cc(c1O)C2 [SC6a]	11.2 ± 3.6
O=S(=O)(O)CCCOc1c2cccc1Cc1cccc(c1OCCCS(=O)(=O)O)Cc1cccc(c1OCCCS(=O)(=O)O)Cc1cccc(c1OCCCS(=O)(=O)O)Cc1cccc(c1OCCCS(=O)(=O)O)Cc1cccc(c1OCCCS(=O)(=O)O)C2 [SC6b]	> 100
O=S(=O)(O)CCCOc1c2cc(S(=O)(=O)O)cc1Cc1cc(S(=O)(=O)O)cc(c1OCCCS(=O)(=O)O)Cc1cc(S(=O)(=O)O)cc(c1OCCCS(=O)(=O)O)Cc1cc(S(=O)(=O)O)cc(c1OCCCS(=O)(=O)O)Cc1cc(S(=O)(=O)O)cc(c1OCCCS(=O)(=O)O)Cc1cc(S(=O)(=O)O)cc(c1OCCCS(=O)(=O)O)C2 [SC6c]	> 100
O=S(=O)(O)c1cc2c(O)c(c1)Cc1cc(S(=O)(=O)O)cc(c1O)Cc1cc(S(=O)(=O)O)cc(c1O)Cc1cc(S(=O)(=O)O)cc(c1O)Cc1cc(S(=O)(=O)O)cc(c1O)Cc1cc(S(=O)(=O)O)cc(c1O)Cc1cc(S(=O)(=O)O)cc(c1O)Cc1cc(S(=O)(=O)O)cc(c1O)C2 [SC8a, para-sulfonato-calix[8]arene]	6.4 ± 1.4
O=S(=O)(O)CCCOc1c2cccc1Cc1cccc(c1OCCCS(=O)(=O)O)Cc1cccc(c1OCCCS(=O)(=O)O)Cc1cccc(c1OCCCS(=O)(=O)O)Cc1cccc(c1OCCCS(=O)(=O)O)Cc1cccc(c1OCCCS(=O)(=O)O)Cc1cccc(c1OCCCS(=O)(=O)O)Cc1cccc(c1OCCCS(=O)(=O)O)C2 [SC8b]	14 ± 2.2
O=S(=O)(O)CCCOc1c2cc(S(=O)(=O)O)cc1Cc1cc(S(=O)(=O)O)cc(c1OCCCS(=O)(=O)O)Cc1cc(S(=O)(=O)O)cc(c1OCCCS(=O)(=O)O)Cc1cc(S(=O)(=O)O)cc(c1OCCCS(=O)(=O)O)Cc1cc(S(=O)(=O)O)cc(c1OCCCS(=O)(=O)O)Cc1cc(S(=O)(=O)O)cc(c1OCCCS(=O)(=O)O)Cc1cc(S(=O)(=O)O)cc(c1OCCCS(=O)(=O)O)Cc1cc(S(=O)(=O)O)cc(c1OCCCS(=O)(=O)O)C2 [SC8c]	18.7 ± 0.7

same assay, conditions: macrocycle at 100 µM

Structure (SMILES)	inhibitory effect on PA endonuclease
O=P(O)(O)Oc1c2cccc1Cc1cccc(c1O)Cc1cccc(c1OP(=O)(O)O)Cc1cccc(c1O)C2 [C4diP, Calix[4]arene dihydroxyphosphonic acid]	neither SC4 and its derivatives nor C4diP show any inhibitory effects
O=S(=O)(O)c1cc2c(O)c(c1)Cc1cc(S(=O)(=O)O)cc(c1O)Cc1cc(S(=O)(=O)O)cc(c1O)Cc1cc(S(=O)(=O)O)cc(c1O)C2 [SC4a, para-sulfonato-calix[4]arene]	neither SC4 and its derivatives nor C4diP show any inhibitory effects
